Results published in patent US20040009904A1, “APL immunoreactive peptides, conjugates thereof and methods of treatment for aPL antibody-mediated pathologies” (priority 1995, published 2004).
Numbered stars: 1 amine (or outer) side, 2 acyl side, 3 side chain; on linkers, the order of the positions; unused ones are H or OH. Bridge positions count the residues as written; N and C are the ends. Square brackets hold non-standard residues; d marks the D form. Ends that are not written are not given here. Peptide text beside a SMILES is read from it. Abu(4-yl) = O=C([C@H](CC[*:3])N[*:1])[*:2]; Phg = N[C@H](C(=O)O)c1ccccc1; NMeV = CN[C@H](C(=O)O)C(C)C; hCys = N[C@@H](CCS)C(=O)O; ATU = not defined here; Aib = CC(C)(N)C(=O)O; Sar = CNCC(=O)O

The compounds below were run against ACA-6701 (assay: Competitive binding peptide ACA ELISA, cardiolipin/β2-GPI-coated plates). Conditions: cyclic thioether analogs.
Design: species or system human
Method: (§1) A variation of this assay uses microtitration plates coated with human β2-glycoprotein I/cardiolipin (β2-GPI/CL) instead of tetravalent peptide and tests the ability of monomeric peptides to block the binding of aPL antibody to the epitope(s) on β2-GPI/CL. In this assay, IgG-depleted human serum at an optimized concentration is used as a source of β2-GPI. The monomeric peptides at several concentrations are incubated with an optimized concentration of aPL antibody in a manner analogous to the assay which employs tetravalent peptide as a plate substrate. Following the incubation of aPL/peptide in (β2-GPI/CL) plates, antibody binding and the peptide concentration required for 50% inhibition is determined at half-maximal absorbance as in the tetravalent assay.
(§2) Peptide sequences for all five peptides immediately follow the table. All were tested using the competitive binding peptide ACA ELISA using CL/β2-GPI plates as described herein.
(§3) (B) Immulon I® 96-well, flat-bottom, polystyrene microtitration plates (Dynatech Laboratories, Inc., Chantilly, Va.) were coated with 30 μL/well of cardiolipin (CL, 50 μg; Sigma Chemical Co., St. Louis, Mo.) in ethanol. Two control wells received 30 μL ethanol only. After overnight evaporation at 4° C., each well was blocked with 200 μL of 5% (w/v) fish gelatin in PBS for 2 hours at RT.
(§4) The CL/β2-GPI microtitration plate was washed 5 times with TBS and 100 μL aliquots in duplicate from Eppendorf tubes #1, 2, 3, and 4 containing the antibody-peptide (or no peptide mixtures) were added to the wells. A volume of 100 μL from tube #4 was added to the duplicate control wells containing no cardiolipin. The microtitration plate was incubated for 1 hour at RT with agitation at 40 rpm in an orbital shaker (American Scientific, Rotator V), washed 5 times with TBS and then 100 μL of 1:1000 goat anti-human IgG alkaline phosphatase conjugate (Zymed, Cat No. 62-8422) in 0.5% (w/v) BSA-TBS was added. Following incubation for 1 hour at RT, the microtitration plate was again washed 5 times with TBS and the colorimetric enzyme detection developed by adding 100 μL of PMPP solution (7.8 g phenolphthalein monophosphate plus 69.5 g of 2-amino-2-methyl-1-propanol in 100 mL water stock solution diluted 1:26 with water). After 21 minutes, the reaction was stopped by adding 50 μL of 0.2 M Na2HPO4 (Mallinckrodt) to each well. Absorbance at 550 nm was read in a microplate reader (Bio-Tek Instruments, Model EL 311). The amount of peptide that inhibited ACA-6501 binding by 50%, the IC50, was calculated from the graph at the intersection of half-maximal absorbance with amount of peptide added.

Row | Compound | IC50 Values, ACA-6701 [μg/0.1 mL]
1 | CC(C)C[C@@H]1NC(=O)[C@H](CCCCN)NC(=O)CNC(=O)[C@H](CC(C)C)NC(=O)[C@H](C(C)C)NC(=O)CNC(=O)[C@H](CC(C)C)NC(=O)[C@@H](N)CSC[C@@H](C(=O)O)NC1=O [LJP 698] | 5.0
2 | CC(C)C[C@@H]1NC(=O)[C@H](CCCCN)NC(=O)CNC(=O)[C@H](CC(C)C)NC(=O)[C@H](C(C)C)NC(=O)CNC(=O)[C@H](CC(C)C)NC(=O)[C@@H](N)CSCC[C@@H](C(=O)O)NC1=O [LJP 702] (H-CLGVLGKL[Abu(4-yl)]-OH; thioether 1-9; N-terminus and C-terminus assumed) | 3.2
3 | CC(C)C[C@@H]1NC(=O)[C@H](CCCCN)NC(=O)CNC(=O)[C@H](CC(C)C)NC(=O)[C@H](C(C)C)NC(=O)CNC(=O)[C@H](CC(C)C)NC(=O)[C@@H](N)CCSCC[C@@H](C(=O)O)NC1=O [LJP 703] (H-[hCys]LGVLGKL[Abu(4-yl)]-OH; thioether 1-9; N-terminus and C-terminus assumed) | 3.6

These compounds were tested against ACA-6501 in the same assay as above. Conditions: Optimization of Peptide 3G3; inf = no 50% inhibition.
Design: species or system human
Method: as §1, §2, §3
During this incubation, variable amounts of each of six peptides were mixed with 22 μL ACA-6501 serum diluted with 3% fish gelatin in 1:1 TBS/PBS (final dilution of 1:400) in a final volume of 220 μL using Eppendorf microcentrifuge tubes. Specifically, in tube #1 were mixed 181.3 μL of 3% fish gelatin in TBS-PBS, 16.7 μL of peptide stock solution plus 22 μL of ACA-6501 serum diluted 40 times in 3% fish gelatin/TBS-PBS. Stock solutions ranged from 450-800 μg/mL for peptides #951 (diserine non-cyclized negative control), #952 (a lot of LJP 690), and thioethers CCTE-3G3, CHTE-3G3, HCTE-3G3 and HHTE-3G3. To tube #2 the following were added: 148 μL fish gelatin/TBS-PBS, […] of peptide stock solution, plus 22 μL of 40 times diluted ACA-6501 serum. Tube #3 contained 48 μL fish gelatin/TBS-PBS, […] of peptide stock solution, plus 22 μL of 40 times diluted ACA-6501 serum. The control tube #4 received 396 μL fish gelatin/TBS-PBS and 44 μL of 40 times diluted ACA-6501 serum (no peptide). Each of the tubes incubated for approximately 1 hour at RT.
as §4

Row | Compound | with ACA 6501 150 ug/mL
4 | CC(C)C[C@@H]1NC(=O)[C@H](CCCCN)NC(=O)CNC(=O)[C@H](CC(C)C)NC(=O)[C@H](C(C)C)N(C)C(=O)CNC(=O)[C@H](CC(C)C)NC(=O)[C@@H](N)CSSC[C@@H](C(=O)O)NC1=O [C L G nV L G K L C] (H-CLG[NMeV]LGKLC-OH; disulfide 1-9) | 220 µg/mL
5 | CC(C)C[C@@H]1NC(=O)[C@H](CCCCN)NC(=O)CNC(=O)[C@H](CC(C)C)NC(=O)[C@H](c2ccccc2)NC(=O)CNC(=O)[C@H](CC(C)C)NC(=O)[C@@H](N)CSSC[C@@H](C(=O)O)NC1=O [C L G pG L G K L C] (H-CLG[Phg]LGKLC-OH; disulfide 1-9) | 70 µg/mL
6 | CC(C)C[C@@H]1NC(=O)[C@H](CCCCN)NC(=O)CNC(=O)[C@H](CC(C)C)NC(=O)[C@H](C(C)C)NC(=O)[C@@H]2CCCN2C(=O)[C@H](CC(C)C)NC(=O)[C@@H](N)CSSC[C@@H](C(=O)O)NC1=O [C L P V L G K L C] (H-CLPVLGKLC-OH; disulfide 1-9) | 340 µg/mL
7 | CC(C)C[C@@H]1NC(=O)[C@H](CCCCN)NC(=O)CNC(=O)[C@H](CC(C)C)NC(=O)[C@H](C(C)C)NC(=O)C(C)(C)NC(=O)[C@H](CC(C)C)NC(=O)[C@@H](N)CSSC[C@@H](C(=O)O)NC1=O [C L aiB V L G K L C] (H-CL[Aib]VLGKLC-OH; disulfide 1-9) | 80 µg/mL
8 | CC(C)C[C@@H]1NC(=O)[C@H](CCCCN)NC(=O)CNC(=O)[C@H](CC(C)C)NC(=O)[C@H](C(C)C)NC(=O)CN(C)C(=O)[C@H](CC(C)C)NC(=O)[C@@H](N)CSSC[C@@H](C(=O)O)NC1=O [C L nG V L G K L C] (H-CL[Sar]VLGKLC-OH; disulfide 1-9) | 70 µg/mL
9 | CC(C)C[C@@H]1NC(=O)[C@H](CCCCN)NC(=O)CNC(=O)[C@H](CC(C)C)NC(=O)[C@H](C(C)C)NC(=O)[C@H](c2ccccc2)NC(=O)[C@H](CC(C)C)NC(=O)[C@@H](N)CSSC[C@@H](C(=O)O)NC1=O [C L pG V L G K L C] (H-CL[Phg]VLGKLC-OH; disulfide 1-9) | 70 µg/mL
10 | CC(C)C[C@@H]1NC(=O)[C@H](CCCCN)NC(=O)CNC(=O)[C@H](CC(C)C)NC(=O)[C@H](C(C)C)NC(=O)CNC(=O)[C@@H]2CCCN2C(=O)[C@@H](N)CSSC[C@@H](C(=O)O)NC1=O [C P G V L G K L C] (H-CPGVLGKLC-OH; disulfide 1-9) | 160 µg/mL
11 | CC(C)C[C@@H]1NC(=O)[C@H](CCCCN)NC(=O)CNC(=O)[C@H](CC(C)C)NC(=O)[C@H](C(C)C)NC(=O)CNC(=O)[C@H](C(C)C)NC(=O)[C@@H](N)CSSC[C@@H](C(=O)O)NC1=O [C V G V L G K L C] (H-CVGVLGKLC-OH; disulfide 1-9) | 130 µg/mL
12 | CC(C)C[C@@H]1NC(=O)[C@H](CCCCN)NC(=O)CNC(=O)[C@H](CC(C)C)NC(=O)[C@H](C(C)C)NC(=O)CNC(=O)C(C)(C)NC(=O)[C@@H](N)CSSC[C@@H](C(=O)O)NC1=O [C aiB G V L G K L C] (H-C[Aib]GVLGKLC-OH; disulfide 1-9) | 370 µg/mL
13 | CC(C)C[C@@H]1NC(=O)[C@H](CCCCN)NC(=O)CNC(=O)[C@H](CC(C)C)NC(=O)[C@H](C(C)C)NC(=O)CNC(=O)[C@H](c2ccccc2)NC(=O)[C@@H](N)CSSC[C@@H](C(=O)O)NC1=O [C pG G V L G K L C] (H-C[Phg]GVLGKLC-OH; disulfide 1-9) | 130 µg/mL
14 | CC(C)C[C@@H]1NC(=O)[C@H](CCCCN)NC(=O)CNC(=O)[C@H](CC(C)C)NC(=O)[C@H](C(C)C)NC(=O)CNC(=O)[C@@H](CC(C)C)NC(=O)[C@@H](N)CSSC[C@@H](C(=O)O)NC1=O [CdL G V L G K L C] (H-C[dL]GVLGKLC-OH; disulfide 1-9) | 180 µg/mL
15 | CC(C)C[C@@H]1NC(=O)[C@@H](NC(=O)[C@@H]2CCCN2C(=O)CN)CSSC[C@@H](C(=O)N2CCC[C@H]2C(=O)NCC(=O)O)NC(=O)[C@H](CC(C)C)NC(=O)[C@H](CCCCN)NC(=O)CNC(=O)[C@H](CC(C)C)NC(=O)[C@H](C(C)C)NC(=O)CNC1=O [G P C L G V L G K L C P G] (H-GPCLGVLGKLCPG-OH; disulfide 3-11) | 180 µg/mL
16 | CC(C)C[C@@H]1NC(=O)[C@H](CCCCN)NC(=O)CNC(=O)[C@H](CC(C)C)NC(=O)[C@H](C(C)C)NC(=O)CNC(=O)[C@H](CC(C)C)NC(=O)[C@@H](N)CSCC[C@@H](C(=O)O)NC1=O [LJP 702] (H-CLGVLGKL[Abu(4-yl)]-OH; thioether 1-9; N-terminus and C-terminus assumed) | 92 µg/mL
17 | CC(C)C[C@@H]1NC(=O)[C@H](CCCCN)NC(=O)CNC(=O)[C@H](CC(C)C)NC(=O)[C@H](C(C)C)NC(=O)CNC(=O)[C@H](CC(C)C)NC(=O)[C@@H](N)CCSCC[C@@H](C(=O)O)NC1=O [LJP 703] (H-[hCys]LGVLGKL[Abu(4-yl)]-OH; thioether 1-9; N-terminus and C-terminus assumed) | 80 µg/mL
18 | CC(C)C[C@@H]1NC(=O)[C@@H](NC(=O)[C@@H]2CCCN2)CSSC[C@@H](C(=O)N2CCC[C@H]2C(=O)NCC(=O)O)NC(=O)[C@H](CC(C)C)NC(=O)[C@H](CCCCN)NC(=O)CNC(=O)[C@H](CC(C)C)NC(=O)[C@H](C(C)C)NC(=O)CNC1=O [P C L G V L G K L C P G] (H-PCLGVLGKLCPG-OH; disulfide 2-10) | 420 µg/mL
19 | CC(C)C[C@@H]1NC(=O)[C@@H](NC(=O)[C@H]2CCCN2)CSSC[C@@H](C(=O)O)NC(=O)[C@H](CC(C)C)NC(=O)[C@H](CCCCN)NC(=O)CNC(=O)[C@H](CC(C)C)NC(=O)[C@H](C(C)C)NC(=O)CNC1=O [dP C L G V L G K L C] (H-[dP]CLGVLGKLC-OH; disulfide 2-10) | 120 µg/mL
20 | C L G V L G K L C ATU-Y (CLGVLGKLC; C-terminal ATU-Y extension) | 300 µg/mL
21 | C L G V aiB G K L C | inf.
22 | CLGGLGKLC [C L G G L G K L C] | inf.
23 | CLGVGGKLC [C L G V G G K L C] | inf
24 | CLGVLCKLC [C L G V L C K L C] | 500 µg/mL
25 | CLGVLGGLC [C L G V L G G L C] | inf
26 | CLGVPGKLC [C L G V P G K L C] | Inf.
27 | Y ATU C L G V L G K L C ({Tyr-ATU}-CLGVLGKLC; cysteine pairing not given here; reading uncertain) | 170 µg/mL

Same assay, conditions: cyclic thioether analogs

Row | Compound | IC50 Values, ACA-6501 [μg/0.1 mL]
28 | CC(C)C[C@@H]1NC(=O)[C@H](CCCCN)NC(=O)CNC(=O)[C@H](CC(C)C)NC(=O)[C@H](C(C)C)NC(=O)CNC(=O)[C@H](CC(C)C)NC(=O)[C@@H](N)CSC[C@@H](C(=O)O)NC1=O [LJP 698] | 11.0
29 | CC(C)C[C@@H]1NC(=O)[C@H](CCCCN)NC(=O)CNC(=O)[C@H](CC(C)C)NC(=O)[C@H](C(C)C)NC(=O)CNC(=O)[C@H](CC(C)C)NC(=O)[C@@H](N)CSCC[C@@H](C(=O)O)NC1=O [LJP 702] (H-CLGVLGKL[Abu(4-yl)]-OH; thioether 1-9; N-terminus and C-terminus assumed) | 9.2
30 | CC(C)C[C@@H]1NC(=O)[C@H](CCCCN)NC(=O)CNC(=O)[C@H](CC(C)C)NC(=O)[C@H](C(C)C)NC(=O)CNC(=O)[C@H](CC(C)C)NC(=O)[C@@H](N)CCSCC[C@@H](C(=O)O)NC1=O [LJP 703] (H-[hCys]LGVLGKL[Abu(4-yl)]-OH; thioether 1-9; N-terminus and C-terminus assumed) | 8.0
